Test results as given in patent US4150970A, “Growth regulator for plants” (Board of Trustees of Michigan State University, priority 1977, dated 1979).

What was measured:
rice = assay: Synthetic triacontanol on rice in nutrient cultures (Example III); type: in vivo; conditions: for Dry wt / Water Uptake: seven days
Method: Synthetic triacontanol in aqueous solution was applied to rice (4 replicates) in nutrient cultures and to "Chico III" tomatoes (6 replicates) grown in soil as previously described. The response of both rice and tomatoes to synthetic triacontanol after seven and six days respectively was similar to that of the natural triacontanol with the optimum rate at between 0.01 and 0.1 mg per liter, as summarized in the following table III:
^1 Treatments applied on filter paper, including control and placed i
nutrient solution. The solution was changed after 4 days. Seedlings
weighed 57 mg at initiation of test.

field corn = assay: Foliar spray and soil drench on field corn (Example IX); type: in vivo; conditions: for % increase: dry weight
Method: To determine the effect of triacontanol methods of treatment, differing amounts of triacontanol were applied to field corn by foliar spray and by drenching the soil. The plants were twelve days old at the time of treatment, and the plants were harvested when forty-two days old.
0.01 mg/l triacontanol applied by soil drench corresponds to 0.4 grams pe
acre. 0.10 mg/l corresponds to 4 grams per acre.

Larker barley = assay: Single and multiple foliar applications on barley (Example XII); type: in vivo
Text: Tests were run, under the conditions above described, to determine the response of "Michigan 396" field corn and "Larker" barley to single and multiple foliar applications of triacontanol at […]. Plants were one week old at time of first treatment and 25 days old at time or harvest. Table XII states the test results.

Mich. 396 Field Corn = assay: Single and multiple applications on field corn at two fertility levels (Example XIV); type: in vivo
Method: Tests were run to study the effect of single and multiple applications of triacontanol on the growth of "Mich. 396 Field Corn" grown at two Fertility Levels in a greenhouse soil. Plants were treated at 14 days after planting and were harvested 37 days after planting. The following results were obtained (Table XIV).

IR-8 rice seedlings = assay: Percent change in dry weight of rice seedlings in the dark (Example XVIII); type: in vivo; conditions: 0.01 mg/l
Method: Rice seed cv. IR-8, or Starbonnet was surface treated with 0.1 percent mercuric chloride and planted in 77 cc plastic cups containing vermiculite and watered with one-fourth Hoagland's nutrient solution containing 3 mM of nitrogen at pH 5.0. After 10 days, seedlings were transplanted to 220 cc specimen cups wrapped in aluminum foil and containing 180 cc of the same Hoagland's nutrient solution. Four seedlings were suspended in the solution with a sponge rubber disc. The plants were grown under a 8 h night at 25° C. and a 16 h day at 30° C. with 21 and 8 μwatts per cm^2 in the blue and red spectra respectively. In the test with varying light intensity the high light intensity was 30 13 and the low intensity was 15 and 8 μwatts per cm^2 for the blue and red spectra respectively. The nutrient solution was renewed every 2 or 3 days. After one week the plants were sorted for size and similar sized plants assigned to the same block for the experiment. Prior to the initiation of a test the plants in each cup were assigned treatment numbers by use of a random number table. […] Sixteen hours prior to a test the foil wrapped cups were tared, and filled with one-half Hoaglands solution containing 6 mM nitrogen. Eighteen μl of chloroform or chloroform containing 1.8 μg triacontanol were placed on 2 cm^2 of Whatman No. 1 filter papers, air dried and placed in the specimen cups. This concentration of 10 μg triacontanol/liter was used for all tests described in the following Examples except where specifically indicated to the contrary. Immediately prior to the test the cups were all brought up to 180 ml. including a set of cups without plants to measure evaporation.
This example was run to determine the percent change in dry weight of whole 15-day-old "IR-8" rice seedlings treated with triacontanol in the dark as compared with a control. The dry weight at zero time was 37.3 mg per seedling. […]

[1] = test system: Tomato callus cell culture; assay: Growth of tomato callus cell culture (Example XIX); type: cell-based, Lycopersicon esculentum, var. marglobe
Method: (§1) Cell cultures were separately grown in disposable petri dishes.
2. Tomato (Lycopersicon esculentum, var. marglobe)
(§2) The cultures were grown on the basic medium of mineral salts described by Linsmaier and Skoog (Physiol. Plant, […] (1965)). Vitamins and hormones varied for each tissue (Table X-1) to maintain the tissues in an undifferentiated state. For all of the tissues inositol was 100 mg/liter and agar 1%. Sucrose was 3% for all but the bean which was 2%.
(§3) Callus was produced from pith for tobacco, potato and tomato. Bean callus was produced from hypocotyl sections and barley callus from immature ovarian tissue. Subcultures were maintained on the appropriate media.
(§4) Stock solutions of triacontanol were prepared at a concentration of 100 μg/ml. The solvent used was glass distilled benzene. The lower concentrations were obtained by serial dilutions. Treatments were applied to 4.5 cm Whatman #1 filter paper disks in 100 μl aliquots. Controls received 100 μl of glass distilled benzene. The solvent was evaporated for approximately 15 minutes and the filter papers were then placed on the agar medium.
(§5) Callus tissue was then broken into pieces of approximately the same size (10 mg) and placed in the petri dishes on the treated filter paper (one piece per dish). For experiments conducted in the light the intensity was approximately 2.0 microwatts/cm^2 -namometer. Fresh weight measurements were made after 12 days of growth.

Bean callus cell culture = assay: Growth of bean callus cell culture (Example XIX); type: cell-based, Phaseolus vulgaris, var. seafarer
Method: as §1
4. Bean (Phaseolus vulgaris, var. seafarer)
as §2, §3, §4, §5

[2] = foliar spray, 0.01 mg/l (first line)
[3] = foliar spray, printed 0.01 mg/l (second line)
[4] = printed 10.0 g triacontanol, 12 days

CCCCCCCCCCCCCCCCCCCCCCCCCCCCCCO [Triacontanol, 1-triacontanol]
Dry wt (rice; 0.001 mg/liter): 103 mg/plant | Water Uptake (rice; 0.001 mg/liter): 37.0 g/plant | Dry wt (rice; 0.010 mg/liter): 107 mg/plant | Water Uptake (rice; 0.010 mg/liter): 38.8 g/plant | Dry wt (rice; 0.100 mg/liter): 106 mg/plant | Water Uptake (rice; 0.100 mg/liter): 39.0 g/plant | Dry wt (rice; 1.000 mg/liter): 91 mg/plant | Water Uptake (rice; 1.000 mg/liter): 33.4 g/plant | minimal effective concentration (rice; Oryza sativa, soil, rice seedlings, nutrient cultures): ≥ 0.001 µg/mL | application rate for maximum effectiveness (field corn; corn seedlings): about 4 grams per acre | effective application rate (field corn; corn seedlings): about 0.4 grams per acre | Dry Weight (field corn; [2]): 408 mg/shoot | % increase (field corn; [2]): 22% | Dry Weight (field corn; [3]): 463 mg/shoot | % increase (field corn; [3]): 39% | Dry Weight (field corn; soil drench, 0.01 mg/l): 426 mg/shoot | % increase (field corn; soil drench, 0.01 mg/l): 22% | Dry Weight (field corn; soil drench, 0.10 mg/l): 519 mg/shoot | % increase (field corn; soil drench, 0.10 mg/l): 48% | Dry wt, Barley (Larker barley; treated at 7, 12 and 18 days): 210 mg/shoot | Dry wt, Barley (Larker barley; treated at 7 and 12 days): 206 mg/shoot | Dry wt, Barley (Larker barley; treated at 12 and 18 days): 214 mg/shoot | Dry wt, Barley (Larker barley; treated at 7 days): 205 mg/shoot | Dry wt, Barley (Larker barley; treated at 12 days): 197 mg/shoot | Dry wt, Barley (Larker barley; treated at 18 days): 193 mg/shoot | Dry Weight (Mich. 396 Field Corn; high fertility, 1 application): 2.032 g/plant | Dry Weight (Mich. 396 Field Corn; high fertility, 5 applications): 1.913 g/plant | Dry Weight (Mich. 396 Field Corn; low fertility, 1 application): 1.297 g/plant | Dry Weight (Mich. 396 Field Corn; low fertility, 5 applications): 1.696 g/plant | Dry Weight (percent change) (IR-8 rice seedlings; 1 hour): 4% | Dry Weight (percent change) (IR-8 rice seedlings; 3 hours): 6% | Dry Weight (percent change) (IR-8 rice seedlings; 6 hours): 10% | % of control [1, 4]: 140 % of control | Fresh weight [1, 4]: 16.8 | growth of in vitro cell cultures ([1]; tomato): significant increases in growth | growth of in vitro cell cultures (Bean callus cell culture; bean): significant increases in growth | % of control (Bean callus cell culture; [4]): 149 % of control | Fresh weight (Bean callus cell culture; [4]): 19.8
